In patent US20130338367A1, “PYRAZOLE DERIVATIVES AND PESTICIDES” (Nissan Chemical Industries, Ltd., priority 2011, published 2013) one finds mortality, pest or weed control and melting point data, which are given here for 16 compounds.

One series has as its system Nilaparvata lugens. As to the kind of experiment: Insecticidal Test on Nilaparvata lugens. Conditions: 144 h, 500 ppm solution, rice sheaths soaked, 2nd-instar nymphs, 25° C., 6 days after, read-out: mortality (%). Type of series: in vivo. On the procedure:
10% emulsifiable concentrates (or 10% wettable powders) of compounds of the present invention were diluted with water containing a spreader to obtain 500 ppm solutions. Rice sheaths were soaked in the solutions for about 10 seconds, dried in air and put in test tubes. In each tube, five 2nd-instar nymphs of Nilaparvata lugens were released, and the tubes were capped with sponge and placed in an incubator at 25° C. 6 Days after, dead insects were counted, and the mortality (%) (the number of dead insects÷the number of released insects×100) was calculated. The test was carried out in duplicate.

The subject of a further series is Bemisia argentifolii. The series is described as follows: Insecticidal Test on Bemisia argentifolii. Type of series: in vivo. Conditions: 120 h, 500 ppm solution sprayed on kidney bean leaves, adults, 25° C., 5 days after, read-out: mortality. As to the method: In styrol cups having an inner diameter of 7 cm, wet filter paper was laid, and kidney bean leaves cut to 3 cm were laid on the paper. 10% emulsifiable concentrates (or 10% wettable powders) of compounds of the present invention were diluted with water containing a spreader to obtain 500 ppm solutions. 2.5 ml of the solutions were sprayed from a rotary spray tower into the styrol cups (2.5 mg/cm^2). The leaves were dried in air, and adults of Bemisia argentifolii were released in the cups. The cups were closed and placed in an incubator at 25° C. 5 Days after, dead insects were counted, and the mortality was calculated by using the same equation as in Test Example 1. The test was carried out in duplicate.

Series [1] relates to Myzus persicae. The series is described as follows: Insecticidal Test on Myzus persicae. Type of series: in vivo. As to conditions: foliar, 144 h, 500 ppm solution sprayed, apterous adults on leaf discs, 25° C., 6 days after, read-out: mortality. As to the method:
(§1) Wet absorbent cotton was laid on glass dishes having an inner diameter of 3 cm, and covered with leaves of Canarium album cut into circles of the same diameter, and 4 apterous adults of Myzus persicae were released. After a day, 10% emulsifiable concentrates (or 10% wettable powders) of compounds of the present invention were diluted with water containing a spreader to obtain 500 ppm solutions, and the solution were sprayed from a rotary spray tower (2.5 mg/cm^2). The dishes were covered with lids and placed in an incubator at 25° C. 6 Days after, dead insects were counted, and the mortality was calculated by using the same equation as in Test Example 1. The test was carried out in duplicate.

The next series concerns Aphis gossypii. The series is described as follows: Insecticidal Test on Aphis gossypii. Type of series: in vivo. Conditions: foliar, 144 h, 500 ppm solution sprayed, apterous adults on cucumber leaf discs, 25° C., 6 days after, read-out: mortality. On the procedure:
as §1, with “cucumber” for “Canarium album”, “Aphis gossypii” for “Myzus persicae”

Series [2] has as its system Myzus persicae. The series is described as follows: Soil Irrigation Test on Myzus persicae. Type of series: in vivo. As to conditions: 144 h, 100 ppm solution, 10 ml soil irrigation of cabbage seedlings, greenhouse, 6 days after release of insects. On the procedure:
10% emulsifiable concentrates of compounds of the present invention were diluted with tap water to obtain 100 ppm solutions. The soil around the bases of cabbage seedlings (at the 2.5 true leaf stage) planted in plastic cups was irrigated with 10 ml of the solutions, and the cups were placed in a greenhouse. One day after the irrigation, adults of Myzus persicae were released at a ratio of 20 insects per seedling, and the seedlings were incubated in the greenhouse. 6 Days after the release of the insects, living insects were counted, and the control value was calculated from the following equation.
Control value (%)={1−(Cb×Tai)/(Cai×Tb)}×100
Cb: the number of insects in a non-treated area before treatment
Cai: the final number of living insects in a non-treated area
Tb: the number of insects in a treated area before treatment
Tai: the final number of living insects in a treated area

Structures are written as SMILES. Counter-ions that a name gives are not always drawn.

For the compound `CSCC(C)(C)C(=O)N(C)c1cn(-c2cccnc2)nc1Cl` [1-134, N-{3-chloro-1-(pyridin-3-yl)-1H-pyrazol-4-yl}-N,2,2-trimethyl-3-(methylthio)propanamide], the mortality at 500 ppm in the series on Nilaparvata lugens, in the series on Bemisia argentifolii, with Myzus persicae [1] and in the series with Aphis gossypii was not below 90% each time. The same compound yielded a pest or weed control at 100 ppm with Myzus persicae [2] not below 90%.

With `Cc1nn(-c2cccnc2)cc1NC(=O)OC(C)(C)C` [1-011, tert-butyl 3-methyl-1-(pyridin-3-yl)-1H-pyrazol-4-ylcarbamate], the mortality at 500 ppm in the series with Nilaparvata lugens, in the series with Bemisia argentifolii, in the series with Myzus persicae [1] and in the series on Aphis gossypii was not below 90% each time. The same compound came in with a pest or weed control at 100 ppm in the series on Myzus persicae [2] not below 90%.

`CCSC(C)C(=O)N(CC)c1cn(-c2cccnc2)nc1Cl` (stereo not drawn) [1-118, N-{3-chloro-1-(pyridin-3-yl)-1H-pyrazol-4-yl}-N-ethyl-2-(ethylthio)propanamide] registered a melting point of 65 to 66 °C. Further, the pest or weed control at 100 ppm with Myzus persicae [2] is not below 90%.

`CSCC1CCN(c2cn(-c3cccnc3)nc2Cl)C1=O` (stereo not drawn) [1-141, 1-{3-chloro-1-(pyridin-3-yl)-1H-pyrazol-4-yl}-3-(methylthiomethyl)pyrrolidin-2-one] registered a melting point of 83 to 84 °C.

In the series with Myzus persicae [2], `CSCCC(=O)N(C)c1cn(-c2cccnc2)nc1Cl` [1-038, N-{3-chloro-1-(pyridin-3-yl)-1H-pyrazol-4-yl}-N-methyl-3-(methylthio)propanamide] yielded a pest or weed control at 100 ppm not below 90%.

The compound `O=C1CCCCN1c1cnn(-c2cccnc2)c1` [1-034, 1-{1-(pyridin-3-yl)-1H-pyrazol-4-yl}piperidin-2-one] returned a melting point of 123 to 124 °C.

With `CCN(C(=O)[C@H](C)CSC)c1cn(-c2cccnc2)nc1Cl` [1-048(S)-(−), (S)-(−)-N-{3-chloro-1-(pyridin-3-yl)-1H-pyrazol-4-yl}-N-ethyl-2-methyl-3-(methylthio)propanamide], the mortality at 500 ppm in the series with Nilaparvata lugens, in the series with Bemisia argentifolii, with Myzus persicae [1] and in the series with Aphis gossypii was not below 90% throughout. The pest or weed control at 100 ppm in the series with Myzus persicae [2] is not below 90%.

Turning to `CCNc1cn(-c2cccnc2)nc1C` (as salt: hydrochloride) [B-002, N-ethyl-3-methyl-1-(pyridin-3-yl)-1H-pyrazole-4-amine], the melting point is 113 to 116 °C.

In the series on Myzus persicae [2], `CCN(C(=O)C(CSC)OC)c1cn(-c2cccnc2)nc1Cl` (stereo not drawn) [1-160, N-{3-chloro-1-(pyridin-3-yl)-1H-pyrazol-4-yl}-N-ethyl-2-methoxy-3-(methylthio)propanamide] displayed a pest or weed control at 100 ppm not below 90%.

`CCN(C(=O)C(CSC)=NOC)c1cn(-c2cccnc2)nc1Cl` [1-143, N-{3-chloro-1-(pyridin-3-yl)-1H-pyrazol-4-yl}-N-ethyl-2-(methoxyimino)-3-(methylthio)propanamide] gave a pest or weed control at 100 ppm with Myzus persicae [2] not below 90%.

`CCSC(C)C(=S)Nc1cn(-c2cccnc2)nc1Cl` (stereo not drawn) [1-353, N-{3-chloro-1-(pyridin-3-yl)-1H-pyrazol-4-yl}-2-(ethylthio)propanethioamide]: in the series on Nilaparvata lugens, the mortality at 500 ppm is not below 90%. In the series on Myzus persicae [2], this compound showed a pest or weed control at 100 ppm not below 90%.

`CN(C(=O)CCS(C)(=O)=O)c1cn(-c2cccnc2)nc1Cl` [1-052, N-{3-chloro-1-(pyridin-3-yl)-1H-pyrazol-4-yl}-N-methyl-3-(methylsulfonyl)propanamide] had a melting point of 90 to 91 °C. Also, the pest or weed control at 100 ppm in the series on Myzus persicae [2] was not below 90%.

With `CS(=O)(=O)Nc1cnn(-c2cccnc2)c1` [2-001], the melting point is 140 to 150 °C.

With `CSCC(=O)N(C)C(C)=Nc1cn(-c2cccnc2)nc1C` [3-004, N-methyl-N-[1-{3-methyl-1-(pyridin-3-yl)-1H-pyrazol-4-ylimino}ethyl]-2-(methylthio)acetamide], the mortality at 500 ppm with Nilaparvata lugens and in the series with Bemisia argentifolii was not below 90% each time. This compound also had a pest or weed control at 100 ppm in the series on Myzus persicae [2] not below 90%.

`Clc1nn(-c2cccnc2)cc1NCC1CC1` [B-014, 3-chloro-N-(cyclopropylmethyl)-1-(pyridin-3-yl)-1H-pyrazole-4-amine] had a melting point of 72 to 78 °C.

Take `O=C(Nc1cnn(-c2cccnc2)c1)C(Br)CCCBr` (stereo not drawn) [1-025, 2,5-dibromo-N-{1-(pyridin-3-yl)-1H-pyrazol-4-yl}pentanamide]: the melting point fell in the range of 114 to 115 °C.
